Where two headings read alike, the source gives them in different places.
Columns and labels:
Type in all cases: biochemical
AKR1C3 = AKR1C3 (Homo sapiens (Human), UniProt P42330); experiment: AKR enzyme inhibition assay, NADP+ dependent oxidation of S-tetralol, AKR1C3; conditions: for Selectivity 1C2:1C3: ratio of AKR1C2 to AKR1C3 IC50; for selectivity over AKR1C2: AKR1C3 over AKR1C2
Protocol: (§1) Structure-Activity Relationship: The ability of compounds to inhibit AKR1C3 in the first instance were determined by measuring the NADP+ dependent oxidation of S-tetralol catalyzed by recombinant enzyme as described herein. […] Assay of enzyme activity: The dehydrogenase activities of AKR1C1, AKR1C2, and AKR1C3 were determined by measuring the formation of NADH formation at 340 nm using Beckman DU640 spectrophotometer. […] After continuously monitoring for 5 min, the increase in UV absorption using different concentrations of enzyme were recorded to calculate the initial velocity and determine enzyme specific activity. IC50 value determination: The inhibitory potency for each compound was represented by IC50 value and measured as described before. […] The concentration of S-tetralol used in the assays for each AKR1C isoform was equal to the Km value for the respective enzyme so that IC50 values could be directly compared assuming a competitive pattern of inhibition. […] In this equation, “range” is the fitted uninhibited value minus the “background”, and “S” is a slope factor. “I” is the concentration of inhibitor. The equation assumes that y falls with increasing “I”.

AKR1C2 = AKR1C2 (Homo sapiens (Human), UniProt P52895); experiment: AKR enzyme inhibition assay, NADP+ dependent oxidation of S-tetralol, AKR1C2 counter-screen; conditions: Table 2; recombinant enzyme, S-tetralol at Km; read-out: IC50 ± SD AKR1C2
Chain of AKR1C2 (P52895 whole entry): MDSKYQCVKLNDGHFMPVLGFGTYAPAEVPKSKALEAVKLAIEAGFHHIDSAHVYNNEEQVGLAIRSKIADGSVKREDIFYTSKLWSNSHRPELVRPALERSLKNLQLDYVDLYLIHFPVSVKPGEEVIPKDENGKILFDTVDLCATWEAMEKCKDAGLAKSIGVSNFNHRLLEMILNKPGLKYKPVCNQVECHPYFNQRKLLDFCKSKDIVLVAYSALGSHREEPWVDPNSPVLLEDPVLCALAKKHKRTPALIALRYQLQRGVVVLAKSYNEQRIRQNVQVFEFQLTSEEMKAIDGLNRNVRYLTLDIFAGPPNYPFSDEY
Protocol: as §1

AKR1C4 = AKR1C4 (Homo sapiens (Human), UniProt P17516); experiment: AKR enzyme inhibition assay, AKR1C4; conditions: Table 2; recombinant enzyme; read-out: IC50 ± SD AKR1C4
Chain of AKR1C4 (P17516 whole entry): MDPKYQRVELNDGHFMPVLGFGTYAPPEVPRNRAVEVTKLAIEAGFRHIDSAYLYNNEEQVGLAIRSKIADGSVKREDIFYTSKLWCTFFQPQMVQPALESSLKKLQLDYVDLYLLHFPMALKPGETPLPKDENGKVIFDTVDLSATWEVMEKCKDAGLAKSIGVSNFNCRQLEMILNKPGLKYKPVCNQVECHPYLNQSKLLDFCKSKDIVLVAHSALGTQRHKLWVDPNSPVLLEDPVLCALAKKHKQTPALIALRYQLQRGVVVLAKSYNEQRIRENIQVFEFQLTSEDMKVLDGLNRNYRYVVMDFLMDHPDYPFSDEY
Protocol: (§2) Assay of enzyme activity: The dehydrogenase activities of AKR1C1, AKR1C2, and AKR1C3 were determined by measuring the formation of NADH formation at 340 nm using Beckman DU640 spectrophotometer. […] After continuously monitoring for 5 min, the increase in UV absorption using different concentrations of enzyme were recorded to calculate the initial velocity and determine enzyme specific activity. IC50 value determination: The inhibitory potency for each compound was represented by IC50 value and measured as described before. […] The concentration of S-tetralol used in the assays for each AKR1C isoform was equal to the Km value for the respective enzyme so that IC50 values could be directly compared assuming a competitive pattern of inhibition. […] In this equation, “range” is the fitted uninhibited value minus the “background”, and “S” is a slope factor. “I” is the concentration of inhibitor. The equation assumes that y falls with increasing “I”.

AKR1C1 = AKR1C1 (Homo sapiens (Human), UniProt Q04828); experiment: AKR enzyme inhibition assay, NADP+ dependent oxidation of S-tetralol, AKR1C1; conditions: Table 2; recombinant enzyme, S-tetralol at Km; read-out: IC50 ± SD AKR1C1
Chain of AKR1C1 (Q04828 whole entry): as the sequence (P52895 whole entry) above, with V38T, H47R, V54L, S87C, M151V, H170R, L172Q counted along it
Protocol: as §2

[1] = Table 2, recombinant enzyme, S-tetralol at Km, read-out: IC50 ± SD AKR1C3

Chain of AKR1C3 (P42330 whole entry): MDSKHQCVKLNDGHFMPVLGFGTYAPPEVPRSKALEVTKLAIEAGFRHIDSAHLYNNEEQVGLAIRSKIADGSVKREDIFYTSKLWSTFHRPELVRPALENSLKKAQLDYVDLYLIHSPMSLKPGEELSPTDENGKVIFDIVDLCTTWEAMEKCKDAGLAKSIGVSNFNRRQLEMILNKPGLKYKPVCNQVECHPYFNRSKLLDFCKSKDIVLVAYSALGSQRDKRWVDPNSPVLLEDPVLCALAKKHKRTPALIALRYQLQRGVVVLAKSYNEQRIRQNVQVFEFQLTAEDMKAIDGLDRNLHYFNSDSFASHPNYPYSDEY

Compound | IC50 (AKR1C3; read-out: IC50 AKR1C3) | IC50 (AKR1C2) | IC50 (AKR1C4) | IC50 (AKR1C1) | Selectivity 1C2:1C3 (AKR1C3; Table 2) | IC50 (AKR1C3; [1]) | selectivity over AKR1C2 (AKR1C3)
Cc1ccc(CNC(=O)c2cc(/C=C/C(=O)O)cc(-c3ccc(Br)cc3)c2)cc1 [Compound A1-b, (E)-3-(4′-Bromo-5-((4-methylbenzyl)carbamoyl)-[1,1′-biphenyl]-3-yl)acrylic acid] | 0.09 µM | 25 ± 7 µM | 6.5 ± 0.6 µM | 107 ± 8 µM | – | – | –
Cc1ccc(CNC(=O)c2cc(/C=C/C(=O)O)cc(-c3ccc(Cl)cc3)c2)cc1 [Compound A1-c, (E)-3-(4′-Chloro-5-((4-methylbenzyl)carbamoyl)-[1,1′-biphenyl]-3-yl)acrylic acid] | – | 20 ± 9 µM | 6 ± 0.5 µM | > 100 µM | 333 | 0.06 ± 0.007 µM | –
Cc1ccc(CNC(=O)c2cc(/C=C/C(=O)O)cc(-c3ccc(F)cc3)c2)cc1 [Compound A1-d, (E)-3-(4′-Fluoro-5-((4-methylbenzyl)carbamoyl)-[1,1′-biphenyl]-3-yl)acrylic acid] | 0.06 µM | 36 ± 4 µM | 8 ± 1.2 µM | > 100 µM | 600 | – | –
Cc1ccc(CNC(=O)c2cc(/C=C/C(=O)O)cc(-c3ccccc3F)c2)cc1 [Compound A1-e, (E)-3-(2′-Fluoro-5-((4-methylbenzyl)carbamoyl)-[1,1′-biphenyl]-3-yl)acrylic acid] | – | > 100 µM | 15.4 ± 1.7 µM | > 100 µM | >1430 | 0.07 ± 0.009 µM | –
Cc1ccc(CNC(=O)c2cc(/C=C/C(=O)O)cc(-c3cccc(F)c3)c2)cc1 [Compound A1-f, (E)-3-(3′-Fluoro-5-((4-methylbenzyl)carbamoyl)-[1,1′-biphenyl]-3-yl)acrylic acid] | – | 48 ± 16 µM | 16.4 ± 2 µM | > 100 µM | – | 0.05 ± 0.004 µM | 960 fold
Cc1ccc(CNC(=O)c2cc(/C=C/C(=O)O)cc(-c3ccc(C)cc3)c2)cc1 [Compound A1-i, (E)-3-(4′-Methyl-5-((4-methylbenzyl)carbamoyl)-[1,1′-biphenyl]-3-yl)acrylic acid] | – | 16 ± 3.9 µM | 10 ± 1.72 µM | 66 ± 17 µM | 160 | 0.1 ± 0.008 µM | –
Cc1ccc(CNC(=O)c2cc(/C=C/C(=O)O)cc(-c3ccc4ccccc4c3)c2)cc1 [Compound A1-o, (E)-3-(3-((4-Methylbenzyl)carbamoyl)-5-(naphthalen-2-yl)phenyl)acrylic acid] | 0.1 µM | 14 ± 4.1 µM | 6.1 ± 0.47 µM | 78 ± 9.3 µM | – | – | 140 fold
Cc1ccc(CNC(=O)c2cc(/C=C/C(=O)O)cc(-c3ccc4cccnc4c3)c2)cc1 [Compound A1-p, (E)-3-(3-((4-Methylbenzyl)carbamoyl)-5-(quinolin-7-yl)phenyl)acrylic acid] | – | 12 ± 2.8 µM | 22 ± 2.3 µM | 80 ± 13 µM | 109 | 0.11 ± 0.017 µM | –
Cc1ccc(CNC(=O)c2cc(/C=C/C(=O)O)cc(-c3ccc4nccnc4c3)c2)cc1 [Compound A1-q, (E)-3-(3-((4-Methylbenzyl)carbamoyl)-5-(quinoxalin-6-yl)phenyl)acrylic acid] | 0.094 µM | 12.5 ± 2.1 µM | 31 ± 2.9 µM | 70 ± 48 µM | 133 | – | –
Cc1ccc(CNC(=O)c2cc(/C=C/C(=O)O)cc(-c3ccc4c(c3)OCCO4)c2)cc1 [Compound A1-s, (E)-3-(3-(2,3-Dihydrobenzo[b][1,4]dioxin-6-yl)-5-((4-methylbenzyl)carbamoyl)phenyl)acrylic acid] | – | 22 ± 4.5 µM | 53 ± 7.1 µM | > 100 µM | – | 0.11 ± 0.011 µM | 200 fold
Cc1ccc(CNC(=O)c2cc(/C=C/C(=O)O)cc(-c3ccc4c(c3)OCO4)c2)cc1 [Compound A1-t, (E)-3-(3-(Benzo[d][1,3]dioxol-5-yl)-5-((4-methylbenzyl)carbamoyl)phenyl)acrylic acid] | 0.11 µM | 36 ± 9.7 µM | 16 ± 1.6 µM | > 100 µM | – | – | –
Cc1ccc(CNC(=O)c2cc(/C=C/C(=O)O)cc(-c3ccc(-n4c5ccccc5c5ccccc54)cc3)c2)cc1 [Compound A1-v, (E)-3-(4′-(9H-Carbazol-9-yl)-5-((4-methylbenzyl)carbamoyl)-[1,1′-biphenyl]-3-yl)acrylic acid] | – | 31 ± 2.8 µM | 11 ± 3.1 µM | 36 ± 5.5 µM | – | 0.14 ± 0.015 µM | 221 fold
C/C=C/Cc1cc(/C=C/C(=O)O)cc(C(=O)NCc2ccc(C)cc2)c1 [Compound A1-z, (E)-3-(3-((E)-But-2-en-1-yl)-5-((4-methylbenzyl)carbamoyl)phenyl)acrylic acid] | 0.11 µM | 39 ± 9 µM | 70 ± 11 µM | > 100 µM | – | – | 354 fold

From US20260035340A1, “INHIBITORS OF AKR1C3 AND METHODS OF USE” (BOARD OF REGENTS OF THE UNIVERSITY OF NEBRASKA, priority 2022, published 2026)
